Measured values taken from the supplement of paper PMC10307832.

How the values were obtained:
Experiment in all cases: relative viability (nuclei count vs DMSO), 5 days (fraction); higher = more cells survive
[1] = compound: C#Cc1cccc(Nc2ncnc3cc(OC)c(OCCCCCCC(=O)NO)cc23)c1 [CUDC-101] + CC(=O)Nc1cccc(-n2c(=O)n(C3CC3)c(=O)c3c(Nc4ccc(I)cc4F)n(C)c(=O)c(C)c32)c1 [Trametinib] (partner 0.02 µM)
Outline: (§1)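 For relative viability, nuclei counts in treated wells were divided by those in vehicle wells. Lung cancer cell lines had been pin-tool dosed in 1536-well plates the day after seeding and cultured for 5 days, then fixed and stained in one step (final 0.05% Triton X-100, 1% formaldehyde, 1 ug/ml Hoechst) and imaged at 4×. Doses were one drug alone or a fixed anchor-drug dose plus five library-drug doses (not always all listed) in √10 steps, and values are duplicate-plate medians.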

[2] = compound: C#Cc1cccc(Nc2ncnc3cc(OC)c(OCCCCCCC(=O)NO)cc23)c1 [CUDC-101] + CS(=O)(=O)CCNCc1ccc(-c2ccc3ncnc(Nc4ccc(OCc5cccc(F)c5)c(Cl)c4)c3c2)o1 [Lapatinib] (partner 2 µM)
Outline: as §1

[3] = compound: COc1cc2/c(=N/c3ccc(Br)cc3F)nc[nH]c2cc1OCC1CCN(C)CC1 [Vandetanib] + Cc1nc(Nc2ncc(C(=O)Nc3c(C)cccc3Cl)s2)cc(N2CCN(CCO)CC2)n1 [Dasatinib] (partner 0.075 µM)
Outline: as §1

[4] = compound: COc1cc2/c(=N/c3ccc(Br)cc3F)nc[nH]c2cc1OCC1CCN(C)CC1 [Vandetanib] + COc1cccc2cc(-c3nc([C@H]4CC[C@H](C(=O)O)CC4)n4ncnc(N)c34)[nH]c12 [OSI-027] (partner 0.5 µM)
Outline: as §1

Row | Cell Line | relative viability ([1]; first compound 0.01 µM) | relative viability ([1]; first compound 0.03162 µM) | relative viability ([1]; first compound 0.1 µM) | relative viability ([1]; first compound 0.3162 µM) | relative viability ([1]; first compound 1 µM) | relative viability ([2]; first compound 0.01 µM) | relative viability ([2]; first compound 0.03162 µM) | relative viability ([2]; first compound 0.1 µM) | relative viability ([2]; first compound 0.3162 µM) | relative viability ([2]; first compound 1 µM) | relative viability ([3]; first compound 0.02 µM) | relative viability ([3]; first compound 0.06325 µM) | relative viability ([3]; first compound 0.2 µM) | relative viability ([3]; first compound 0.6325 µM) | relative viability ([3]; first compound 2 µM) | relative viability ([4]; first compound 0.02 µM) | relative viability ([4]; first compound 0.06325 µM) | relative viability ([4]; first compound 0.2 µM) | relative viability ([4]; first compound 0.6325 µM) | relative viability ([4]; first compound 2 µM)
1 | NCI-H1355 | 0.423 | 0.399 | 0.411 | 0.46 | 0.317 | 1.04 | 0.825 | 1.05 | 0.895 | 0.679 | 0.633 | 0.723 | 0.694 | 0.679 | 0.775 | 0.446 | 0.362 | 0.386 | 0.5 | 0.387
2 | NCI-H596 | 0.817 | 0.776 | 0.848 | 0.874 | 0.801 | 1.04 | 1.04 | 1.03 | 1.08 | 0.982 | 0.498 | 0.659 | 0.646 | 0.585 | 0.596 | 0.751 | 0.674 | 0.665 | 0.726 | 0.74
3 | NCI-H23 | 0.338 | 0.357 | 0.413 | 0.373 | 0.351 | 1.08 | 0.963 | 1.19 | 0.918 | 0.559 | 0.882 | 0.806 | 0.821 | 0.797 | 0.728 | 0.513 | 0.559 | 0.573 | 0.613 | 0.746
4 | HCC-366 | 0.391 | 0.378 | 0.312 | 0.366 | 0.209 | 1.07 | 1.06 | 1.07 | 0.755 | 0.459 | 0.6 | 0.625 | 0.663 | 0.561 | 0.637 | 0.807 | 0.876 | 0.978 | 0.824 | 0.948
5 | NCI-H2126 | 0.552 | 0.545 | 0.56 | 0.522 | 0.415 | 0.764 | 0.785 | 0.758 | 0.803 | 0.635 | 0.564 | 0.564 | 0.626 | 0.559 | 0.467 | 0.694 | 0.661 | 0.64 | 0.627 | 0.648
6 | LU99A | 0.444 | 0.539 | 0.617 | 0.535 | 0.374 | 1.2 | 0.889 | 0.987 | 0.861 | 0.321 | 0.427 | 0.521 | 0.387 | 0.416 | 0.636 | 0.267 | 0.314 | 0.267 | 0.264 | 0.317
7 | NCI-H650 | 1.06 | 0.864 | 1.08 | 1.16 | 0.911 | 0.947 | 1.1 | 0.899 | 0.582 | 0.405 | 0.425 | 0.511 |  | 0.433 | 0.365 | 0.491 | 0.531 |  | 0.521 | 0.447
8 | LXF-289 | 0.689 | 0.671 | 0.659 | 0.605 | 0.539 | 0.895 | 0.915 | 0.97 | 0.915 | 0.694 | 0.24 | 0.218 | 0.107 | 0.257 | 0.253 | 0.774 | 0.708 | 0.877 | 0.771 | 0.741
9 | CAL-12T | 0.311 | 0.381 | 0.373 | 0.41 | 0.335 | 0.796 | 0.603 | 0.763 | 0.64 | 0.567 | 0.426 | 0.407 | 0.387 | 0.29 | 0.32 | 0.701 | 0.655 | 0.541 | 0.626 | 0.291
10 | SK-MES-1 | 0.488 | 0.488 | 0.493 | 0.431 | 0.319 | 0.466 | 0.462 | 0.451 | 0.461 | 0.388 | 0.358 | 0.33 | 0.347 | 0.27 | 0.286 | 0.678 | 0.559 | 0.691 | 0.618 | 0.448
11 | SW 1573 | 0.638 | 0.5 | 0.599 | 0.592 | 0.392 | 1.05 | 1.15 | 1.23 | 1.2 | 0.813 | 0.449 | 0.577 | 0.598 | 0.441 | 0.674 | 0.508 | 0.57 | 0.653 | 0.634 | 0.534
12 | NCI-H1975 | 0.38 | 0.322 | 0.347 | 0.692 | 0.319 | 1.02 | 0.913 | 0.844 | 0.82 | 0.411 | 0.349 | 0.361 | 0.341 | 0.423 | 0.373 | 0.719 | 0.728 | 0.77 | 0.683 | 0.612
13 | NCI-H647 | 0.461 | 0.411 | 0.543 | 0.538 | 0.443 | 1.25 | 1.1 | 1.02 | 0.863 | 0.271 | 0.151 | 0.207 | 0.175 | 0.178 | 0.198 | 0.572 | 0.554 | 0.73 | 0.596 | 0.674
14 | NCI-H322M | 0.507 | 0.477 | 0.517 | 0.44 | 0.411 | 0.618 | 0.648 | 0.521 | 0.575 | 0.603 | 0.23 | 0.25 | 0.24 | 0.223 | 0.252 | 0.573 | 0.551 | 0.608 | 0.49 | 0.422
